In patent US12329788B2, “Synbiotic compositions” (Evonik Operations GmbH, priority 2018, dated 2025):
Where a SMILES comes first, the peptide text is derived from it.

Key:
colonic human microbiota = test: i-screen intestinal screening model, microbiota composition by 16S rRNA V4 sequencing (whole community, Bacillus persistence); type: cell-based; conditions: for other genera relative abundance: 24 h SIEM, amino acids 3.5 mM; for other genera relative abundance / effect on the microbial community: dipeptides 7 mM; for synergy on microbial community composition (higher increase of Clostridium XIVa, higher decrease of Clostridium XI than single additions): 24 h; for effect on the microbial community: Example 8, amino acids 3.5 mM, 0% O2
Text: To determine the effect of the probiotic strains Bacillus subtilis DSM 32315, Bacillus subtilis DSM 32540, Bacillus licheniformis DSM 32314 and Bacillus amyloliquefaciens CECT 5940 on adult colonic microbiota, an intestinal screening model was used (i-screen, TNO, the Netherlands). Therefore the i-screen model was inoculated with standard human adult fecal microbiota material, which consisted of pooled fecal donations from 6 healthy adult volunteers (Caucasian, European lifestyle and nutrition). The fecal material was mixed and grown in a fed-batch fermenter for 40 hours to create a standardized microbiota as described previously. These standard adult gut microbiota sets were stored at -80° C. in 12% glycerol. The intestinal microbiota was cultured in vitro in modified standard ileal efflux medium (SIEM), the composition of which was described by and modified as follows: 0.047 g/l pectin, 0.047 g/l xylan, 0.047 g/l arabinogalactan, 0.047 g/l amylopectin, 0.392 g/l starch, 24.0 g/l casein, 24.0 Bacto pepton, 0.4 ox-bile and 0.2 g/l cysteine. All components were supplied by Trititium Microbiology (Veldhoven, The Netherlands). The pH of the medium was adjusted to 5.8. For the i-screen fermentations, the precultured standardized fecal inoculum was diluted 50 times in 1350 μl modified SIEM. All experiments have been carried out in triplicates. The strains Bacillus subtilis (DSM 32315), Bacillus subtilis DSM 32540, Bacillus licheniformis DSM 32314 and Bacillus amyloliquefaciens CECT 5940 were precultured separately in 50 ml LBKelly medium, for about 16 h. Incubation was done in shaking flasks at 37° C. under aerobic conditions. After incubation, bacterial density was determined by optical density measurement at 600 nm. A final stock solution of 1×10^10 cells/ml was prepared in 1 ml buffer solution (0.1 mM MES pH 6). […] DNA extraction for the sequencing of 16S rRNA coding genes was performed as described by […] et al. (2013) with some minor modifications. Approximately 100 μl of the culture materials were added to the wells of a 96 well plate containing per well 300 μl of lysis buffer (Mag Mini DNA Isolation Kit, LGC ltd, UK), 500 μl zirconium beads (0.1 mm; BioSpec products, Bartlesville, OK, USA) and 500 μl of phenol saturated with Tris-HCI (pH 8.0; Carl Roth GMBH, Germany). The 96 well plate was placed in a Mini-BeadBeater-96 (BioSpec products, Bartlesville, Okla, USA) for 2 min at 2100 oscillations/min. DNA was subsequently purified using the Agowa Mag Mini DNA Isolation Kit according to the manufacturer recommendations. Extracted DNA was eluted in a final volume of 60 μl buffer. The microbiota composition was analyzed by 16S rRNA gene amplicon sequencing of the V4 Hypervariable Region. This was Achieved Through a Series of Steps: The amount of bacterial DNA in the i-screen DNA samples was determined by quantitative polymerase chain reaction (qPCR) using primers specific for the bacterial 16S rRNA gene: Subsequently, PCR amplicons of the V4 hypervariable region of the 16S rRNA gene were generated for the individual samples by amplification of […] of DNA as described by (2013), using […]/[…] primers. Primers included Illumina adapters and a unique 8-nt sample index sequence key. A mock control was included for technical quality control. […] The Library was quantified using the Quant-iTTM PicoGreen® dsDNA Assay Kit (Thermo Fisher Scientific). Paired-end sequencing of amplicons was conducted on the Illumina MiSeq platform (Illumina, Eindhoven, The Netherlands). The sequence data was processed with Mothur v.1.36.1 [26] in line with the mothur MiSeq SOP [24]. Before merging the read pairs, low quality regions were trimmed using Btrim with a sliding window size of 5 nt and average quality score of 25. After merging, the sequences were filtered by length while no ambiguous bases were allowed. […] Chimeric sequences were identified per sample using […] [28] in de novo mode and removed. […]

human gut microbiota = test: lactate and short-chain fatty acid production in i-screen with human gut microbiota; type: cell-based; conditions: 24 h, amino acids 3.5 mM, dipeptides 7 mM
Text: To determine the effect of the probiotic strains Bacillus subtilis DSM 32315, Bacillus subtilis DSM 32540, Bacillus licheniformis DSM 32314 and Bacillus amyloliquefaciens CECT 5940 on adult colonic microbiota, an intestinal screening model was used (i-screen, TNO, the Netherlands). Therefore the i-screen model was inoculated with standard human adult fecal microbiota material, which consisted of pooled fecal donations from 6 healthy adult volunteers (Caucasian, European lifestyle and nutrition). The fecal material was mixed and grown in a fed-batch fermenter for 40 hours to create a standardized microbiota as described previously. These standard adult gut microbiota sets were stored at −80° C. in 12% glycerol.
The intestinal microbiota was cultured in vitro in modified standard ileal efflux medium (SIEM), the composition of which was described by and modified as follows: 0.047 g/l pectin, 0.047 g/l xylan, 0.047 g/l arabinogalactan, 0.047 g/l amylopectin, 0.392 g/l starch, 24.0 g/l casein, 24.0 Bacto pepton, 0.4 ox-bile and 0.2 g/l cysteine. All components were supplied by Trititium Microbiology (Veldhoven, The Netherlands). The pH of the medium was adjusted to 5.8.
For the i-screen fermentations, the precultured standardized fecal inoculum was diluted 50 times in 1350 μl modified SIEM. All experiments have been carried out in triplicates. The strains Bacillus subtilis (DSM 32315), Bacillus subtilis DSM 32540, Bacillus licheniformis DSM 32314 and Bacillus amyloliquefaciens CECT 5940 were precultured separately in 50 ml LBKelly medium, for about 16 h. Incubation was done in shaking flasks at 37° C. under aerobic conditions. After incubation, bacterial density was determined by optical density measurement at 600 nm. A final stock solution of 1×10^10 cells/ml was prepared in 1 ml buffer solution (0.1 mM MES pH 6). The suspension of each strain was introduced into the i-screen to a final level of about 10^9 cells/ml, respectively
The i-screen incubation was performed under following gas conditions: 0.2% O2, 0.2% CO2, 10% H2, 89.6% N2.
The effect of the combination of different probiotic strains together with glutamine, or glutamine- or glutamic acid-containing dipeptides containing peptides on the n-butyrate production of the microbial community was analyzed for the strain B. subtilis (DSM 32315) as described in example 1 and 5. The single amino acids were added to a concentration of 3.5 mM and the dipeptides to a concentration of 7 mM.
The effects of the combination of different probiotic strains together with glutamine, or glutamine- or glutamic acid-containing dipeptides containing peptides on the n-butyrate production of the microbial community were analyzed for the strains B. licheniformis (DSM 32314) and B. amyloliquefaciens (CECT 5940) as described in example 1, 5, and 10. The single amino acids were added to a concentration of 3.5 mM and the dipeptides to a concentration of 7 mM.

[1] = microbiota + CECT 5940 (first group so headed, r13-r15)
[2] = microbiota + CECT 5940 (second group so headed, r16-r18)
[3] = in combination with B. amyloliquefaciens (CECT 5940)
[4] = in combination with B. licheniformis (DSM 32314)
[5] = in combination with B. subtilis (DSM 32315)

SMILES	other genera relative abundance (colonic human microbiota; [1]) [%]	other genera relative abundance (colonic human microbiota; [2]) [%]	other genera relative abundance (colonic human microbiota; microbiota + DSM 32315) [%]	other genera relative abundance (colonic human microbiota; microbiota, no probiotic cells) [%]	synergy on microbial community composition (higher increase of Clostridium XIVa, higher decrease of Clostridium XI than single additions) (colonic human microbiota; [3])	synergy on microbial community composition (higher increase of Clostridium XIVa, higher decrease of Clostridium XI than single additions) (colonic human microbiota; [4])	synergy on microbial community composition (higher increase of Clostridium XIVa, higher decrease of Clostridium XI than single additions) (colonic human microbiota; [5])	synergy on n-butyrate concentration (human gut microbiota; [4])	synergy on n-butyrate concentration (human gut microbiota; [5])	effect on the microbial community (colonic human microbiota)	synergy on n-butyrate concentration (human gut microbiota; [3])
CC(=O)N[C@@H](C)C(=O)N[C@@H](CCC(N)=O)C(=O)O [Ac-Ala-Gln] (Ac-Ala-Gln-OH)	78	76	67	72	–	–	–	–	–	–	–
C[C@H](N)C(=O)N[C@@H](CCC(N)=O)C(=O)O [Ala-Gln, Alanine-Glutamine] (H-Ala-Gln-OH)	90	94	96	98	synergistic effect	synergistic effect	synergistic effect	Synergistic positive effects	Synergistic positive effects	–	–
NC(=O)CC[C@H](N)C(=O)O [Gln, glutamine, reference compound]	79	70	74	72	synergistic effect	–	–	–	Synergistic positive effects	no positive effect on the microbial community	Synergistic positive effects
N[C@@H](CCC(=O)O)C(=O)O [Glu, glutamic acid, reference compound]	73	80	72	72	–	–	–	–	Synergistic positive effects	no positive effect on the microbial community	–
NCC(=O)O.N[C@@H](CCC(=O)O)C(=O)O [Gly-Glu, Glycine-Glutamic acid]	91	90	92	95	synergistic effect	synergistic effect	synergistic effect	Synergistic positive effects	Synergistic positive effects	–	–
